# Measurements published in patent US20200061092A1, “METHODS AND COMPOSITIONS FOR TREATING DISORDERS ASSOCIATED WITH MUSCLE WEAKNESS” (priority 2018, published 2020).
# Columns and labels:
# [1] = test system: F-α-DG (functionally glycosylated α-DG); experiment: Western blot (IIH6C4) quantification and laminin overlay assay of muscle lysates from ribitol-treated P448L mice; type: in vivo, mouse; details: for F-α-DG by IIH6C4 western blot, % of normal (C57) levels: 6 months (FIG. 3c)
# Experimental: Ribitol was purchased from Sigma (A5502 Adonitol, ≥98%, Sigma, St. Louis) and dissolved in drinking water to the final concentration of 5% or 10%. […] mice aged at 4 weeks were treated with 5% ribitol drinking water for 1 month and […] mice aged at 7 weeks were treated with 5% ribitol drinking water for 3 months and 6 months. All the mice were randomly assigned to either treatment or control groups. And a minimum number of 4 mice were used for each group. No animal was excluded. […] female breeders were given 10% ribitol in drinking water during pregnancy, and pups continued to be treated with 10% ribitol in drinking water until they were euthanized at 19 weeks of age. Untreated age-matched […] and wild-type C57BL/6 mice were used as controls. The animals were terminated at the end of each treatment time point and tissues including heart, diaphragm, TA, quadriceps, liver, spleen and kidney were collected for analyses. For western blot analysis, tissues were homogenized in extraction buffer (50 mM Tris-HCl pH 8.0, 150 mM NaCl, and 1% Triton X-100), supplemented with 1× protease inhibitor cocktail (Sigma-Aldrich). Protein concentration was quantified by Bradford assay (Bio-Rad DC protein assay). Eighty μg of protein was loaded on a 4-15% Bio-Rad Mini-PROTEAN TGX gel (Bio-Rad) and immunoblotted. Amount of total protein loaded for C57 mice was half of the amount loaded for the […] mice. Nitrocellulose membranes (Bio-Rad) were blocked with 5% milk in 1×PBS for 2 hr at room temperature and then incubated with the following primary antibodies overnight at 4° C.: IIH6C4 (1:2000), AF6868 (R&D Systems) (1:1000) and α-actin (Sigma) (1:1000). Appropriate horseradish peroxidase (HRP)-conjugated secondary antibodies were incubated for 2 hr at room temperature. All blots were developed by electrochemiluminescence immunodetection (PerkinElmer). For IIH6C4 band quantification from western blot ImageJ software was used. For laminin overlay assay, nitrocellulose membranes were blocked with laminin overlay buffer (10 mM ethanolamine, 140 mM NaCl, 1 mM MgCl2, and 1 mM CaCl2, pH 7.4) containing 5% nonfat dry milk for 1 hr at 4° C. followed by incubation with laminin from Engelbreth-Holm-Swarm murine sarcoma basement membrane (L2020) (Sigma) at a concentration of 2 μg/ml overnight at 4° C. in laminin overlay buffer. Membranes were then incubated with rabbit anti-laminin antibody (Sigma) (1:1500) followed by goat anti-rabbit HRP-conjugated IgG secondary antibody (Santa Cruz Biotechnology) (1:3000). Blots were saturated with Western-Lightning Plus ECL (Perkin-Elmer) before exposure to and developing of GeneMate auto-radiographic film (VWR).
# [2] = test system: FKRP P448L mutant mice; experiment: Muscle function tests (treadmill exhaustion, grip strength) in P448L mice; type: in vivo, mouse
# Experimental: For treadmill exhaustion test, 17 and 30 weeks old mice were placed on the belt of a five-lane-motorized treadmill (LE8700 treadmill, Panlab/Harvard Apparatus, Barcelona, Spain) supplied with shock grids mounted at the back of the treadmill, which delivered a 0.2 mA current to provide motivation for exercise. Initially, the mice were subjected to an acclimation period (time, 5 min; speed, 8 cm/s, and 0° incline). Immediately after acclimation period, the test commenced with speed increases of 2 cm/s every minute until exhaustion. The test was stopped and the time to exhaustion was determined when the mouse remained on the shock grid for 5 s without attempting to re-engage the treadmill. For grip force test, forelimb and hindlimb in peak torque was measured by a grip strength meter (Columbus Instruments). For forelimb force, the animal was held so that only the forelimb paws grasp the specially designed mouse flat mesh assembly, and was pulled back from the tail until the grip was broken. The force transducer recorded the peak force reached when the animal's grip is broken. For hindlimb force, an angled mesh assembly was used. Mice were allowed to rest on the angled mesh assembly, facing away from the meter with its hindlimbs at least one-half of the way down the length of the mesh. The mouse tail was pulled directly toward the meter and parallel to the mesh assembly. During this procedure, the mice resist by grasping the mesh with all four limbs. Pulling toward the meter was continued until the hindlimbs released from the mesh assembly. Five successful hindlimb and forelimb force measurements within 2 minutes were recorded. The average value was used for analysis. Force was presented as values of KGF (kilogram-force) units normalized to bodyweights (gr) as “Units/gr”. The tests were performed 1 week before euthanasia.
smiles,measurement,setting,value
OC[C@@H](O)[C@@H](O)[C@@H](O)CO [ribitol],Functionality of glycosylated α-DG by laminin overlay assay,"[1]; 5% ribitol, 6 months",supported by laminin overlay assay
same,"F-α-DG by IIH6C4 western blot, % of normal (C57) levels","[1]; 5% ribitol, cardiac muscle",up to 14%
same,"F-α-DG by IIH6C4 western blot, % of normal (C57) levels","[1]; 5% ribitol, diaphragm",≤ 17%
same,Functionality of glycosylated α-DG by laminin overlay assay,[1]; 10% ribitol from pregnancy to 19 weeks,supported by laminin overlay assay
same,"F-α-DG by IIH6C4 western blot, % of normal levels","[1]; 10% ribitol from pregnancy to 19 weeks, diaphragm",18%
same,"F-α-DG by IIH6C4 western blot, % of normal levels","[1]; 10% ribitol from pregnancy to 19 weeks, heart",14%
same,"F-α-DG by IIH6C4 western blot, % of normal levels","[1]; 10% ribitol from pregnancy to 19 weeks, limb muscle",26%
same,Limb muscle function (treadmill exhaustion test),"[2]; 5% ribitol, 3 and 6 months",significant improvement in limb muscle function was not demonstrated
same,Treadmill running distance and time vs untreated,"[2]; 10% ribitol from pregnancy, 17 weeks of age",significantly longer
same,"Grip strength, forelimb force vs untreated","[2]; 10% ribitol from pregnancy, 18 weeks of age",significant improvement
